Source: patent publication US7754896B2, “Indol-alanine derivatives as selective S1P4-agonists” (Novartis AG, priority 2004, dated 2010)
pEC50: −log10 of the molar value.

Test system: CHO
Assay: GTPγS binding assay, membranes of wild type CHO cells
Type: biochemical
Procedure: Membrane proteins are prepared from wild type CHO-K1 and the CHO cell clones expressing human S1P4. To obtain 10-30 mg of membrane proteins, cells are grown in one large culture dish (500 cm^2) per cell clone to 80 and 90% confluence. The culture medium is removed and the cells are harvested on ice from the dish, by scraping in 20 ml cold HEPES 10 mM (pH 7.5) supplemented with 0.1% fatty acid-free bovine serum albumin (BSA) and protease inhibitors cocktail (one tablet per 50 ml, Roche Diagnostics, Rotkreuz). […] The protein concentration is determined using the Bio Rad Protein Assay and human IgG as standard. […]
The selection of the clones to be tested in the GTPγS assay is based on the real time PCR assays. […] The plates are then centrifuged for 10 minutes at 2000 rpm and counted with a TopCount instrument (Packard). […]
The compounds mentioned in this application are tested for specificity, e.g. the activity they have in the parental cell line prior transformation with the S1P4 cDNA and for selectivity on CHO cells lines transformed with the S1P1, S1P2, S1P3, and S1P5. […] For example, S1P4 specific and selective compounds may have an EC50 (apparent EC50) measured at S1P4 that is 10×, preferably 100× lower that that measured in wild type CHO cells or In cell expressing any of the other four S1P receptors.

**Q.** How did the pEC50 turn out when `NC(CNC(=O)c1cc2c(-c3ccccc3Cc3ccccc3)cccc2[nH]1)C(=O)O` (stereo not shown) [Example 2] was run?
**A.** The pEC50 was less than 5.00.
